≈ marks a conversion by molar mass, not a printed value.
Experiments:
Type in all cases: functional
[1] = tested on: Enterococcus casseliflavus; test: Antimicrobial activity against Enterococcus casseliflavus at 0.5 ug/ml by broth microdilution method
[2] = tested on: Corynebacterium pseudodiphtheriticum; test: Antimicrobial activity against Corynebacterium pseudodiphtheriticum at 0.25 ug/ml by broth microdilution method
[3] = tested on: Corynebacterium pseudodiphtheriticum; test: Antimicrobial activity against Corynebacterium pseudodiphtheriticum at 0.5 ug/ml by broth microdilution method
[4] = tested on: Corynebacterium pseudodiphtheriticum; test: Antimicrobial activity against Corynebacterium pseudodiphtheriticum at 1 ug/ml by broth microdilution method
[5] = tested on: Enterococcus avium; test: Antimicrobial activity against Enterococcus avium at <= 0.06 ug/ml by broth microdilution method
[6] = tested on: Enterococcus avium; test: Antimicrobial activity against Enterococcus avium at 0.25 ug/ml by broth microdilution method
[7] = tested on: Enterococcus avium; test: Antimicrobial activity against Enterococcus avium at 2 ug/ml by broth microdilution method
[8] = tested on: Enterococcus casseliflavus; test: Antimicrobial activity against Enterococcus casseliflavus at 0.12 ug/ml by broth microdilution method
[9] = tested on: Enterococcus casseliflavus; test: Antimicrobial activity against Enterococcus casseliflavus at 4 ug/ml by broth microdilution method
[10] = tested on: Enterococcus durans; test: Antimicrobial activity against Enterococcus durans at <= 0.06 ug/ml by broth microdilution method
[11] = tested on: Streptococcus; test: Antimicrobial activity against beta hemolytic Streptococci group G at <= 0.06 ug/ml by broth microdilution method
[12] = tested on: Streptococcus anginosus; test: Antimicrobial activity against viridans group Streptococcus anginosus at <= 0.06 ug/ml by broth microdilution method
[13] = tested on: Streptococcus equinus; test: Antimicrobial activity against viridans group Streptococcus bovis at 0.25 ug/ml by broth microdilution method
[14] = tested on: Aerococcus; test: Antimicrobial activity against Aerococcus spp. at 0.12 ug/ml by broth microdilution method
[15] = tested on: Bacillus cereus; test: Antimicrobial activity against Bacillus cereus at 0.5 ug/ml by broth microdilution method
[16] = tested on: Bacillus cereus; test: Antimicrobial activity against Bacillus cereus at 2 ug/ml by broth microdilution method
[17] = tested on: Corynebacterium sp.; test: Antimicrobial activity against Corynebacterium spp. at <= 0.06 ug/ml by broth microdilution method
[18] = tested on: Corynebacterium amycolatum; test: Antimicrobial activity against Corynebacterium amycolatum at <= 0.06 ug/ml by broth microdilution method
[19] = tested on: Streptococcus; test: Antimicrobial activity against beta hemolytic Streptococci group C at <= 0.06 ug/ml by broth microdilution method
[20] = tested on: Streptococcus salivarius; test: Antimicrobial activity against viridans group Streptococcus salivarius at 0.5 ug/ml by broth microdilution method
[21] = tested on: Streptococcus anginosus; test: Antimicrobial activity against viridans group Streptococcus anginosus at 2 ug/ml by broth microdilution method
[22] = tested on: Enterococcus gallinarum; test: Antimicrobial activity against Enterococcus gallinarum at 0.25 ug/ml by broth microdilution method
[23] = tested on: Enterococcus gallinarum; test: Antimicrobial activity against Enterococcus gallinarum at 0.5 ug/ml by broth microdilution method
[24] = tested on: Enterococcus hirae; test: Antimicrobial activity against Enterococcus hirae at 1 ug/ml by broth microdilution method
[25] = tested on: Enterococcus raffinosus; test: Antimicrobial activity against Enterococcus raffinosus at 0.5 ug/ml by broth microdilution method
[26] = tested on: Micrococcus luteus; test: Antimicrobial activity against Micrococcus luteus at 0.5 ug/ml by broth microdilution method
[27] = tested on: Micrococcus luteus; test: Antimicrobial activity against Micrococcus luteus at 1 ug/ml by broth microdilution method
[28] = tested on: Enterococcus gallinarum; test: Antimicrobial activity against Enterococcus gallinarum by broth microdilution method
[29] = tested on: Streptococcus mutans; test: Antimicrobial activity against viridans group Streptococcus mutans at 2 ug/ml by broth microdilution method
[30] = tested on: Streptococcus oralis; test: Antimicrobial activity against viridans group Streptococcus oralis at <= 0.06 ug/ml by broth microdilution method
[31] = tested on: Streptococcus oralis; test: Antimicrobial activity against viridans group Streptococcus oralis at 0.5 ug/ml by broth microdilution method
[32] = tested on: Streptococcus oralis; test: Antimicrobial activity against viridans group Streptococcus oralis at 1 ug/ml by broth microdilution method
[33] = tested on: Streptococcus parasanguinis; test: Antimicrobial activity against viridans group Streptococcus parasanguis at 0.5 ug/ml by broth microdilution method
[34] = tested on: Streptococcus parasanguinis; test: Antimicrobial activity against viridans group Streptococcus parasanguis at 1 ug/ml by broth microdilution method
[35] = tested on: Streptococcus sanguinis; test: Antimicrobial activity against viridans group Streptococcus sanguinis at 0.12 ug/ml by broth microdilution method
[36] = tested on: Streptococcus equinus; test: Antimicrobial activity against viridans group Streptococcus bovis at 0.12 ug/ml by broth microdilution method
[37] = tested on: Streptococcus equinus; test: Antimicrobial activity against viridans group Streptococcus bovis at 1 ug/ml by broth microdilution method
[38] = tested on: Streptococcus constellatus; test: Antimicrobial activity against viridans group Streptococcus constellatus at 2 ug/ml by broth microdilution method
[39] = tested on: Streptococcus gordonii; test: Antimicrobial activity against viridans group Streptococcus gordonii at <= 0.06 ug/ml by broth microdilution method
[40] = tested on: Streptococcus gordonii; test: Antimicrobial activity against viridans group Streptococcus gordonii at 0.12 ug/ml by broth microdilution method
[41] = tested on: Streptococcus gordonii; test: Antimicrobial activity against viridans group Streptococcus gordonii at 0.5 ug/ml by broth microdilution method
[42] = tested on: Streptococcus gordonii; test: Antimicrobial activity against viridans group Streptococcus gordonii at 1 ug/ml by broth microdilution method
[43] = tested on: Streptococcus intermedius; test: Antimicrobial activity against viridans group Streptococcus intermedius at 0.25 ug/ml by broth microdilution method
[44] = tested on: Streptococcus intermedius; test: Antimicrobial activity against viridans group Streptococcus intermedius at 1 ug/ml by broth microdilution method
[45] = tested on: Streptococcus mitis; test: Antimicrobial activity against viridans group Streptococcus mitis at <= 0.06 ug/ml by broth microdilution method
[46] = tested on: Streptococcus vestibularis; test: Antimicrobial activity against viridans group Streptococcus vestibularis at 0.12 ug/ml by broth microdilution method
[47] = tested on: Streptococcus vestibularis; test: Antimicrobial activity against viridans group Streptococcus vestibularis at 0.5 ug/ml by broth microdilution method
[48] = tested on: Streptococcus vestibularis; test: Antimicrobial activity against viridans group Streptococcus vestibularis at 1 ug/ml by broth microdilution method
[49] = tested on: Streptococcus anginosus; test: Antimicrobial activity against viridans group Streptococcus anginosus by broth microdilution method
[50] = tested on: Streptococcus equinus; test: Antimicrobial activity against viridans group Streptococcus bovis by broth microdilution method
[51] = tested on: Streptococcus mitis; test: Antimicrobial activity against viridans group Streptococcus mitis by broth microdilution method
[52] = tested on: Streptococcus oralis; test: Antimicrobial activity against viridans group Streptococcus oralis at by broth microdilution method
[53] = tested on: Streptococcus parasanguinis; test: Antimicrobial activity against viridans group Streptococcus parasanguis by broth microdilution method
[54] = tested on: Streptococcus salivarius; test: Antimicrobial activity against viridans group Streptococcus salivarius by broth microdilution method
[55] = tested on: Streptococcus sanguinis; test: Antimicrobial activity against viridans group Streptococcus sanguinis by broth microdilution method
[56] = tested on: Streptococcus vestibularis; test: Antimicrobial activity against viridans group Streptococcus vestibularis by broth microdilution method

CC(=O)NC[C@H]1CN(c2ccc(N3CCOCC3)c(F)c2)C(=O)O1 [LINEZOLID]
inhibition at 0.5 µg/mL [1]: 0%
inhibition at 0.25 µg/mL [2]: 36.4%
inhibition at 0.5 µg/mL [3]: 90.9%
inhibition at 1 µg/mL [4]: 100%
Inhibition [5]: 0%
inhibition at 0.25 µg/mL [6]: 0%
inhibition at 2 µg/mL [7]: 99.1%
inhibition at 0.12 µg/mL [8]: 0%
inhibition at 4 µg/mL [9]: 100%
Inhibition [10]: 0%
Inhibition [11]: 0.5%
Inhibition [12]: 2.9%
inhibition at 0.25 µg/mL [13]: 2.7%
inhibition at 0.12 µg/mL [14]: 0%
inhibition at 0.5 µg/mL [15]: 30%
inhibition at 2 µg/mL [16]: 100%
Inhibition [17]: 2.1%
Inhibition [18]: 0%
Inhibition [19]: 0%
inhibition at 0.5 µg/mL [20]: 46.2%
inhibition at 2 µg/mL [21]: 100%
inhibition at 0.25 µg/mL [22]: 0%
inhibition at 0.5 µg/mL [23]: 1.7%
inhibition at 1 µg/mL [24]: 37.5%
inhibition at 0.5 µg/mL [25]: 0%
inhibition at 0.5 µg/mL [26]: 75.9%
inhibition at 1 µg/mL [27]: 100%
MIC50 [28]: 2 µg/mL (≈ 5.93 µM)
MIC90 [28]: 2 µg/mL (≈ 5.93 µM)
inhibition at 2 µg/mL [29]: 100%
Inhibition [30]: 0.7%
inhibition at 0.5 µg/mL [31]: 34.5%
inhibition at 1 µg/mL [32]: 96.4%
inhibition at 0.5 µg/mL [33]: 57.1%
inhibition at 1 µg/mL [34]: 100%
inhibition at 0.12 µg/mL [35]: 0.7%
inhibition at 0.12 µg/mL [36]: 0%
inhibition at 1 µg/mL [37]: 87.2%
inhibition at 2 µg/mL [38]: 100%
Inhibition [39]: 0%
inhibition at 0.12 µg/mL [40]: 0%
inhibition at 0.5 µg/mL [41]: 33.3%
inhibition at 1 µg/mL [42]: 100%
inhibition at 0.25 µg/mL [43]: 0%
inhibition at 1 µg/mL [44]: 87.9%
Inhibition [45]: 0.3%
inhibition at 0.12 µg/mL [46]: 0%
inhibition at 0.5 µg/mL [47]: 36.4%
inhibition at 1 µg/mL [48]: 100%
MIC50 [49]: 1 µg/mL (≈ 2.96 µM)
MIC90 [49]: 1 µg/mL (≈ 2.96 µM)
MIC50 [50]: 1 µg/mL (≈ 2.96 µM)
MIC90 [50]: 2 µg/mL (≈ 5.93 µM)
MIC50 [51]: 1 µg/mL (≈ 2.96 µM)
MIC90 [51]: 1 µg/mL (≈ 2.96 µM)
MIC50 [52]: 1 µg/mL (≈ 2.96 µM)
MIC90 [52]: 1 µg/mL (≈ 2.96 µM)
MIC50 [53]: 0.5 µg/mL (≈ 1.48 µM)
MIC90 [53]: 1 µg/mL (≈ 2.96 µM)
MIC50 [54]: 1 µg/mL (≈ 2.96 µM)
MIC90 [54]: 1 µg/mL (≈ 2.96 µM)
MIC50 [55]: 1 µg/mL (≈ 2.96 µM)
MIC90 [55]: 1 µg/mL (≈ 2.96 µM)
MIC50 [56]: 1 µg/mL (≈ 2.96 µM)
MIC90 [56]: 1 µg/mL (≈ 2.96 µM)

Reference: ChEMBL document CHEMBL1145534 (2007)
